Counter-ions that a name gives are not always drawn.
Experiments:
HBV = assay: Primary anti-HBV assay, extracellular HBV DNA by real-time qPCR from HepG2 2.2.15 cells; format: cell-based, HBV wild-type strain ayw1
Method: The primary anti-HBV assay was performed by using real-time qPCR (TaqMan) to measure extracellular HBV DNA copy number associated with virions released from HepG2 2.2.15 cells. The HepG2 2.2.15 cell line was a stable human hepatoblastoma cell line that contains two copies of the HBV wild-type strain ayw1 genome and constitutively produces high levels of HBV. Antiviral compounds blocking any […] step of viral replication such as transcription, translation, pregenome encapsidation, reverse transcription, particle assembly and release can be identified and characterized using this cell line. Briefly, HepG2 2.2.15 cells were plated in 96-well microtiter plates at 1.5×10^4 cells/well in Dulbecco's Modified Eagle's Medium supplemented with 2% FBS, 380 μg/mL G418, 2.0 mM L-Glutamine, 100 units/mL Penicillin, 100 μg/mL Streptomycin, and 0.1 mM non-essential amino acids. Only the interior wells were utilized to reduce “edge effects” observed during cell culture; the exterior wells were filled with complete medium to help minimize sample evaporation. After 16-24 hours the confluent monolayer of HepG2 2.2.15 cells was washed and the medium was replaced with complete medium containing various concentrations of a test compound in triplicate. Lamivudine (3TC) was used as the positive control, while media alone was added to cells as a negative control (virus control, VC). Three days later the culture medium was replaced with fresh medium containing the appropriately diluted test compounds. Six days following the initial administration of the test compound, the cell culture supernatant was collected, treated with pronase and then used in a real-time quantitative TaqMan qPCR assay. The PCR-amplified HBV DNA was detected in real-time by monitoring increases in fluorescent signal that result from the exonucleolytic degradation of a quenched fluorescent probe molecule that hybridizes to the amplified HBV DNA. […] Antiviral activity was calculated from the reduction in HBV DNA levels (EC50 values determined). […] The Selectivity Index was calculated as CC50/EC50.

HIV-1 isolate 89BZ_167 = assay: In vitro efficacy against HIV-1 in fresh PBMCs (reverse transcriptase activity in supernatant), isolate 89BZ_167; format: cell-based
Method: Fresh human PBMCs, seronegative for HIV and HBV, were isolated from screened donors (Biological Specialty Corporation, Colmar, PA). Cells were pelleted/washed 2-3 times by low speed centrifugation and re-suspension in PBS to remove contaminating platelets. The Leukophoresed blood was then diluted 1:1 with Dulbecco's Phosphate Buffered Saline (DPBS) and layered over 15 mL of Ficoll (GE Healthcare #17-1440-02) in 50 mL centrifuge tube and then centrifuged for 30 minutes at 600×g. Banded PBMCs were gently aspirated from the resulting interface and subsequently washed 2× with PBS by low speed centrifugation. After the final wash, cells were enumerated by tryptan blue exclusion and re-suspended at 1×10^6 cells/mL in RPMI 1640 supplemented with 15% Fetal Bovine Serum (FBS), and 2 mM L-glutamine, 4 μg/mL Phytohemagglutinin (PHA, Sigma). The cells were allowed to incubate for 48-72 hours at 37° C. […] Pooling (mixing) of mononuclear cells from more than one donor was used to minimize the variability observed between individual donors, which results from quantitative and qualitative differences in HIV infection and overall response to the PHA and IL-2 of primary lymphocyte populations. […]

**Q.** Which “Selectivity Index” value (HBV; CC50/EC50, HepG2 2.2.15 cells) does the source give for `C[C@H](Cn1cnc2c(N)ncnc21)OCP(=O)(OCOC(=O)C(C)(C)C)Oc1ccccc1` (stereo partly drawn) [((((((R)-1-(6-amino-9H-purin-9-yl)propan-2-yl)oxy)methyl)(phenoxy)phosphoryl)oxy)methyl pivalate fumarate] here?
**A.** >1250

**Q.** What about the “Conclusion: activity against HBV” value (HBV; HepG2 2.2.15 cells) of the same compound?
**A.** potently active

**Q.** And the EC50 (HBV; Hepatitis B virus, 144 h, reduction in extracellular HBV DNA, HepG2 2.2.15 cells, six days)?
**A.** 80 nM

**Q.** And the “Selectivity Index” value (HIV-1 isolate 89BZ_167; HIV-1 isolate 89BZ_167, PBMCs)?
**A.** 1333

**Q.** What about the EC50 (HIV-1 isolate 89BZ_167; Human immunodeficiency virus 1, PBMC, HIV-1 isolate 89BZ_167, PHA-stimulated fresh human PBMCs, six-seven days) of the same compound?
**A.** 20.8 nM

— patent US12090163B2, “Pharmaceutical compositions” (CIPLA LIMITED, priority 2017, dated 2024)
